In ChEMBL document CHEMBL3751669, “Structural refinement of pyrazolo[4,3-d]pyrimidine derivatives to obtain highly potent and selective antagonists for the human A3 adenosine receptor” (Eur J Med Chem, 2016):

Experiments:
[1] = target: T1, Adenosine receptor A2b (Homo sapiens) (UniProt P29275); experiment: Antagonist activity at human A2B receptor expressed in CHO cells assessed as inhibition of NECA-stimulated cAMP production at 1 uM by scintillation counting method; type: functional, cell-based
T1 sequence (whole entry): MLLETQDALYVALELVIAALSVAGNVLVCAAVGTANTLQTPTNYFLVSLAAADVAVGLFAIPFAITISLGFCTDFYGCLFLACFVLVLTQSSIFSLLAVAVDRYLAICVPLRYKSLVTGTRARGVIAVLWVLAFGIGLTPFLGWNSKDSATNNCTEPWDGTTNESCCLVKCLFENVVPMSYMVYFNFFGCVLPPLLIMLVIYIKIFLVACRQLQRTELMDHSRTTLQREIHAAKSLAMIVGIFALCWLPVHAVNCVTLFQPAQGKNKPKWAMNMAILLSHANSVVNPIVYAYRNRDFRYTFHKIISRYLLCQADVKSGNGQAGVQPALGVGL

[2] = target: T2, Adenosine receptor A1 (Homo sapiens) (UniProt P30542); experiment: Displacement of [3H]DPCPX at human A1 receptor expressed in CHO cell membrane at 1 uM after 120 mins by scintillation counting method; type: cell membranes
T2 sequence (whole entry): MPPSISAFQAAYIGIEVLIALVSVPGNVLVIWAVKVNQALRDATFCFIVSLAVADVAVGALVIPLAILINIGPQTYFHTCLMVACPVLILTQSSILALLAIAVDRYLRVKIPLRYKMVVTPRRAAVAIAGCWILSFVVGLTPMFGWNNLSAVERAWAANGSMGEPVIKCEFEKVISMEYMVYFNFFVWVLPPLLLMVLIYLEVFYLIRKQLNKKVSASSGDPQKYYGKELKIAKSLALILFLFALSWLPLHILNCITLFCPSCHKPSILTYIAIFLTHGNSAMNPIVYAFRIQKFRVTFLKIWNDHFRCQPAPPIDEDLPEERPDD

Adenosine receptor A3 [3] = target: T3, Adenosine receptor A3 (Homo sapiens, UniProt P0DMS8); experiment: Displacement of [125I]AB-MECA at human […] receptor expressed in CHO cell membrane after 60 mins by scintillation counting method; type: cell membranes
T3 sequence (P0DMS8 whole entry): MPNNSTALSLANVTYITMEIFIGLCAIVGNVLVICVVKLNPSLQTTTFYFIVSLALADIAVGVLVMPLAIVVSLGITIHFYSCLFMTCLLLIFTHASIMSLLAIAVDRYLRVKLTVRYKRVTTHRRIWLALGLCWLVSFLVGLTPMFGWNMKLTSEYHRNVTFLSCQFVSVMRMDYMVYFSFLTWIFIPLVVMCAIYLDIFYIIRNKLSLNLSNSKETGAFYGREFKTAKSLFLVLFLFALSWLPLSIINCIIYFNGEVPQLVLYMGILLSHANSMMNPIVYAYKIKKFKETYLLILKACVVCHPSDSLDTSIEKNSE

Adenosine receptor A2a [4] = target: T4, Adenosine receptor A2a (Homo sapiens, UniProt P29274); experiment: Displacement of [3H]ZM241385 at human A2A receptor expressed in CHO cell membrane at 1 uM after 60 mins by scintillation counting method; type: cell membranes
T4 sequence (P29274 whole entry): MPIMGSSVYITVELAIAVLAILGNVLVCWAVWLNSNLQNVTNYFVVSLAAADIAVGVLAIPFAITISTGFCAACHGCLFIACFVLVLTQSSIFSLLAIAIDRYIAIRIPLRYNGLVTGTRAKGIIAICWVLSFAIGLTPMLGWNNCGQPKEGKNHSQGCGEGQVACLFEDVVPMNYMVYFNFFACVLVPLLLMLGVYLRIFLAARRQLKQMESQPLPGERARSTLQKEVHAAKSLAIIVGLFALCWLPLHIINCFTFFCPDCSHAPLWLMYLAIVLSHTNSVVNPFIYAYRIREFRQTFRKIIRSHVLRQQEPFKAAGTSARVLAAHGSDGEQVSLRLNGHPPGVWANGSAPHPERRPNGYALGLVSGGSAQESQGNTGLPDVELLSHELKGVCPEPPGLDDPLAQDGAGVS

Adenosine receptor A3 [5] = target: T3, Adenosine receptor A3; experiment: Antagonist activity at human A3 receptor expressed in CHO cells assessed as inhibition of Cl-IB-MECA-induced cAMP production by scintillation counting method; type: functional, cell-based
Adenosine receptor A1 = target: T5, Adenosine receptor A1 (Homo sapiens, UniProt P30542); experiment: Displacement of [3H]DPCPX at human A1 receptor expressed in CHO cell membrane after 120 mins by scintillation counting method; type: cell membranes
T5 sequence (P30542 whole entry): T2 sequence (whole entry)

[6] = target: T6, Adenosine receptor A3 (Homo sapiens) (UniProt P0DMS8); experiment: Displacement of [125I]AB-MECA at human […] receptor expressed in CHO cell membrane at 1 uM after 60 mins by scintillation counting method; type: cell membranes
T6 sequence (whole entry): T3 sequence (P0DMS8 whole entry)

Adenosine receptor A3 [7] = target: T7, Adenosine receptor A3 (Rattus norvegicus, UniProt P28647); experiment: Displacement of [125I]AB-MECA at rat A3 receptor expressed in HEK293 cells after 60 mins by scintillation counting method; type: cell-based
T7 sequence (P28647 whole entry): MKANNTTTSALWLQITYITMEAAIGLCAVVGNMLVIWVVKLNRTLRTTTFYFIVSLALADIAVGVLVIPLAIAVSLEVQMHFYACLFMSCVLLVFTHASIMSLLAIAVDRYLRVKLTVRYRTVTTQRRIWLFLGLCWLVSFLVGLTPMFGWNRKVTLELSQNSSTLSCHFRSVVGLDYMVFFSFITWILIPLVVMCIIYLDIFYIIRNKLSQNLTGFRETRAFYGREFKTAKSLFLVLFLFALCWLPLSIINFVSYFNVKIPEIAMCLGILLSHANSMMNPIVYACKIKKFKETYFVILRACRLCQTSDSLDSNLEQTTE

Adenosine receptor A2a [8] = target: T4, Adenosine receptor A2a; experiment: Displacement of [3H]ZM241385 at human A2A receptor expressed in CHO cell membrane after 60 mins by scintillation counting method; type: cell membranes

SMILES	inhibition [1] [%]	inhibition [2] [%]	Ki (Adenosine receptor A3 [3]) [nM]	inhibition (Adenosine receptor A2a [4]) [%]	IC50 (Adenosine receptor A3 [5]) [nM]	Ki (Adenosine receptor A1) [nM]	inhibition [6] [%]	Ki (Adenosine receptor A3 [7]) [nM]	Ki (Adenosine receptor A2a [8]) [nM]
Cc1nc2cn(-c3ccccc3)nc2c(=O)[nH]1	3	–	–	–	–	–	–	–	–
O=C(Cc1ccccc1)Nc1nc(-c2cccs2)nc2cn(-c3ccccc3)nc12	1	32	3.53	1	8.45	–	–	–	–
O=c1[nH]c(-c2ccccc2)nc2cn(-c3ccccc3)nc12	5	–	–	–	–	–	–	–	–
Cc1nc(N)c2nn(-c3ccccc3)nc2n1	1	–	–	6	–	213	1	–	–
Nc1nc(Cc2cccs2)nc2cn(-c3ccccc3)nc12	1	–	250	35	–	400	–	–	–
Cc1ccc(-c2nc3cn(-c4ccccc4)nc3c(=O)[nH]2)o1	1	1	868	15	–	–	–	–	–
O=c1[nH]c(-c2ccco2)nc2cn(-c3ccccc3)nc12	1	1	–	12	–	–	30	–	–
O=C(Nc1nc(-c2cccs2)nc2cn(-c3ccccc3)nc12)c1ccncc1	1	20	9.54	1	37	–	–	> 10000	–
Cn1cc2nc(-c3ccccc3)[nH]c(=O)c2n1	1	1	–	1	–	–	20	–	–
COc1ccc(C(=O)Nc2nc(-c3ccc(OC)cc3)nc3cn(-c4ccccc4)nc23)cc1	1	3	1.31	1	4.27	–	–	> 10000	–
Nc1nc(-c2cccs2)nc2cn(-c3ccccc3)nc12	27	–	9.7	–	–	52	–	–	115
O=C(Nc1nc(-c2cccs2)nc2cn(-c3ccccc3)nc12)c1ccccc1	1	1	2.12	1	5.32	–	–	> 10000	–
Cc1nc2nn(-c3ccccc3)nc2c(=O)[nH]1	1	32	321	14	–	–	–	–	–
O=C(c1ccco1)N(C(=O)c1ccco1)c1nc(-c2cccs2)nc2cn(-c3ccccc3)nc12	1	–	1.82	2	4.37	687	–	–	–
Cc1nc2cn(Cc3ccccc3)nc2c(=O)[nH]1	1	6	485	1	–	–	–	–	–
COc1ccc(-c2nc(NC(=O)c3ccccc3)c3nn(-c4ccccc4)cc3n2)cc1	1	2	6.42	1	26	–	–	> 10000	–
O=C(Nc1nc(-c2cccs2)nc2cn(-c3ccccc3)nc12)c1cccs1	1	–	2.43	7	5.59	466	–	–	–
O=C(Nc1nc(-c2cccs2)nc2cn(-c3ccccc3)nc12)c1cccnc1	1	–	0.41	3	1.01	764	–	–	–
O=c1[nH]c(-c2ccccc2)nc2cn(Cc3ccccc3)nc12	1	6	130	1	–	–	–	–	–
O=C(Nc1nc(-c2cccs2)nc2cn(-c3ccccc3)nc12)c1ccco1	1	–	2.34	21	5.47	552	–	–	–

SMILES	inhibition [1] [%]	inhibition [2] [%]	Ki (Adenosine receptor A3 [3]) [nM]	inhibition (Adenosine receptor A2a [4]) [%]	IC50 (Adenosine receptor A3 [5]) [nM]	Ki (Adenosine receptor A1) [nM]	inhibition [6] [%]	Ki (Adenosine receptor A3 [7]) [nM]	Ki (Adenosine receptor A2a [8]) [nM]
COc1ccc(-c2nc3cn(C)nc3c(=O)[nH]2)cc1	1	2	–	1	–	–	1	–	–
O=c1[nH]c(-c2ccccc2)nc2nn(-c3ccccc3)nc12	1	8	–	11	–	–	23	–	–
Nc1nc(-c2ccccc2)nc2cn(Cc3ccccc3)nc12	1	–	54	–	–	250	–	–	300
Nc1nc(-c2ccc(O)cc2)nc2cn(-c3ccccc3)nc12	7	31	432	33	–	–	–	–	–
O=C(Cc1ccccc1)Nc1nc(-c2ccccc2)nc2cn(Cc3ccccc3)nc12	1	7	202	9	–	–	–	–	–
COc1ccc(-n2cc3nc(-c4cccs4)[nH]c(=O)c3n2)cc1	1	5	247	1	–	–	–	–	–
O=C(Nc1nc(-c2ccccc2)nc2cn(Cc3ccccc3)nc12)c1ccccc1	2	36	223	24	–	–	–	–	–
O=C(Nc1nc(-c2ccccc2)nc2cn(-c3ccccc3)nc12)c1cccs1	1	18	5.87	1	13	–	–	–	–
COc1ccc(-c2nc(N)c3nn(-c4ccccc4)cc3n2)cc1	2	33	33	1	–	–	–	–	–
COc1ccc(-c2nc(N)c3nn(-c4ccc(OC)cc4)cc3n2)cc1	1	1	17	3	–	–	–	–	–
COc1ccc(C(=O)Nc2nc(-c3cccs3)nc3cn(-c4ccccc4)nc23)cc1	1	1	0.027	1	0.11	–	–	> 10000	–
O=c1[nH]c(-c2cccs2)nc2cn(-c3ccccc3)nc12	1	6	413	14	–	–	–	–	–
Cn1cc2nc(-c3ccccc3)nc(N)c2n1	1	31	–	1	–	–	1	–	–
Nc1nc(-c2ccc(Cl)cc2)nc2cn(-c3ccccc3)nc12	3	13	–	1	–	–	4	–	–
Cc1nc2cn(C)nc2c(=O)[nH]1	1	1	–	1	–	–	1	–	–
Cc1nc2cn(-c3ccccc3F)nc2c(=O)[nH]1	1	1	225	1	–	–	–	–	–
Nc1nc(-c2ccccc2)nc2nn(-c3ccccc3)nc12	1	38	–	3	–	–	1	–	–
COc1ccc(-c2nc(NC(=O)c3ccncc3)c3nn(-c4ccccc4)cc3n2)cc1	1	3	9.83	1	39	–	–	> 10000	–
COc1ccc(-n2cc3nc(-c4cccs4)nc(N)c3n2)cc1	31	28	78	35	–	–	–	–	–
